Tested on: CT26 murine colorectal carcinoma tumor
Experiment: Study 4: CT26 subcutaneous tumor model, anti-tumor efficacy
Type: in vivo, female Balb/c mice
Conditions: for GRI (%) Day 11: vs vehicle
Protocol: Study 4: CT26 is a murine colorectal carcinoma cell line. Eight-week-old female Balb/c mice (Jackson Labs, Maine) were inoculated subcutaneously with 0.2×10^6 CT26 tumor cells and monitored for tumor growth. Once the tumors reached an average of 100-125 mm^3, animals were irradiated with either mock irradiation or 8 Gy of focal beam irradiation (Study Day 0). Animals were then dosed intravenously with either vehicle (PBS) or 0.25 mg/kg of Compound No. 14 on a QW×3 schedule beginning on Study Day 1. Anti-mPD-1 antibody (clone RMP1-14, BioXCell) treatment was administered intraperitoneally twice weekly starting on Study Day 1 with a concentration of 10 mg/kg for 3 weeks. Animals were monitored for tumor volumes and body weight changes twice weekly throughout the study once they reached their humane endpoint. GRI was calculated on the last day with animals remaining in the vehicle group (Study Day 11).
Study 4: A 5 mg/mL stock solution of Compound No. 14 was formulated in PBS at the final concentration of 0.0667 mg/mL and administered intravenously (IV). Final doses received were 0.25 mg/kg. […] Compound No. 14 was administered on a QW schedule for 3 doses in single agent treatment group and in combination treatment groups beginning on Day 1. Dose formulation of Compound No. 14 was prepared once and utilized for dosing on each treatment day.
Anti-mPD-1 or isotype control was administered concurrent with Compound No. 14 or vehicle control on a BIW schedule for 3 doses in single agent treatment groups and in combination treatment groups.
Studies 4 and 5: Radiation treatment for Studies 4 and 5 were performed using focal beam radiation with volumentric image guidance from computer tomography scans on the SmART (Small animal image-guided radiotherapy) platform (Precision XRay Inc., North Branford, CT). Animals received 4.52 Gy/min of radiation and approximately 1.8 min was needed to reach 8 Gy dose delivery (Study 4) or […] was needed to reach 16 Gy dose delivery (Study 5). Animals were anesthetized during imaging and radiation treatment using 1-2% isoflurane.
Growth Rate Inhibition: The differences in the tumor growth trends over time between pairs of treatment groups were assessed by fitting each animal's data to a simple exponential growth model and comparing the mean growth rates of the two groups, as described in more detail below. The difference in the growth rates was summarized by the GRI, which is the reduction in growth rate experienced by the treatment group relative to that of the reference group, expressed as a fraction of the vehicle growth rate.
μT and μC are the mean tumor growth rates for the treatment and reference groups, respectively. μV is the mean tumor growth rate for the vehicle group, which in most cases is the same as the reference group.
A GRI greater than 100% is interpreted as tumor regression when the vehicle group is the same as the reference group. A negative value of the GRI means that the tumors in the treatment group grew faster than the tumors in the reference group. Statistical significance was determined using an unpaired t-test.
Tumor Growth Rate Computation: Low tumor volumes can cause problems with the data analysis, so all measurements below 25 cubic mm (including 0 values) were excluded from the analysis. After this exclusion step, the tumor volume was assumed to follow an exponential growth model. More specifically, for a given animal and treatment group,
where Vi is the tumor volume at the i^th time point. Here, a is the initial log volume, b is the tumor growth rate, and t1 is the measurement time in days. εi is the residual error term, which was assumed to be uncorrelated and drawn from a normal distribution.
This model was fit separately for each animal within each treatment group. If an animal was sacrificed or died early, but at least two unique time points were measured (including baseline), then the data up to that point was used to estimate the growth rate. […]

[1] = TG02 Compound No. 14 0.25 mg/kg QWx3 IV, single agent
[2] = TG05 Compound No.14 0.25 mg/kg QWx3 IV + Radiation 8 Gy, through Day 11

## Nc1ncnc2c1ncn2[C@@H]1O[C@@H]2COP(=O)(S)O[C@@H]3[C@H](O)[C@@H](COP(=O)(S)O[C@H]2[C@H]1F)O[C@H]3n1cc(F)c2c(=O)[nH]cnc21 (stereo partly drawn) [Compound No. 14]
[1]
  Number of Animals Removed: 0
  GRI (%) Day 11: 13%
TG05 Compound No. 14 0.25 mg/kg QWx3 IV + Radiation 8 Gy
  Number of Animals Removed: 0
TG05 Compound No. 14 0.25 mg/kg QWx3 IV + Radiation 8 Gy (Day 0)
  GRI (%) Day 11: 88%
[2]
  Combination Assessment: Additive
  Synergy Score %: −12%

From patent US20240335464A1, “ADMINISTRATION OF STING AGONIST, CHECKPOINT INHIBITORS, AND RADIATION” (Takeda Pharmaceutical Company Limited, priority 2020, published 2024)
